Laboratory results published in patent US12661353B2, “SPT5 inhibitors and uses thereof” (Yeda Research and Development Co. Ltd., priority 2020, dated 2026).

Tests used:
[1] = target: T1, His-eIF4E (Homo sapiens, UniProt P06730); experiment: Binding assay by intrinsic fluorescence of His-eIF4E (negative control); details: negative control protein
T1 construct: His tag; made in house; host or cells: E. coli; purified by nickel agarose beads
Experimental: Binding assay—In order to measure binding of the indicated compound to Spt5 and/or Pol II; Spt5-Spt4 or Rpb1 fused to a histidine (His) tag were expressed in E. coli (SEQ ID Nos: 2-3, 5-6 and 81) and purified on nickel agarose beads as described in Ashkenazi et al. 2016. The proteins were incubated for 10 minutes with increasing concentrations of the indicated compound in a black 384 wells microplate in a total volume of 20 μl. Binding was assessed by measuring the changes in the intrinsic fluorescence (280 nm) using Cytation™ 5 (BioTek).
Direct interaction with either the Spt5 or the Rpb1 CC domain of SPI-21 and SPI-18 was further validated. His-Rpb1 and His-Spt5 (fused to Spt4 to increase its stability) and His-eIF4E, used as a negative control, were each expressed in E. coli and purified by nickel agarose beads. Using the purified proteins, fluorescence intensity measurements were performed in the presence of increasing concentrations of SPI-21 and SPI-18. This method analyzes binding by monitoring the changes in the intrinsic fluorescence of the proteins as a consequence of conformational changes. Spt5, Rpb1, and eIF4E display significant intrinsic fluorescence, as expected from the presence of aromatic residues in all of them. […] These findings are consistent with the direct interaction of the identified SPI compounds with the Spt5 and Rpb1 proteins.

[2] = test system: TNFα-induced IL6 mRNA; experiment: Dose-response on TNFα-induced IL6 mRNA levels; type: cell-based, human; details: read-out: IC50, inflammatory gene inhibition (TNFα-induced transcription, FIG. 3D)
Experimental: Bars represent the mean of at least 3±SEM independent experiments. The asterisks denote statistical significance differences relative to DMSO+TNFα control according to Student's t tests (typically one tailed, paired): *p<0.05; **p<0.01; ***p<0.005; ****p<0.001. […] Shown are mRNA levels of A20 (normalized to GAPDH) in Hela cells treated with SPI-21 and TNFα and incubated with actinomycin D for the indicated time points, as determined by real-time qPCR. The data points present the mean of 3±SEM independent experiments. […] Shown are levels of mature and immature transcripts in cells incubated for 1 hour with DMSO (vehicle control) or 50 μM of SPI-21 or SPI-18 followed by treatment with TNFα for an additional one hour, as determined by real-time qPCR using primers spanning exons 3 and 4 (mature, black arrows shown in the scheme of G, SEQ ID NOs: 47 and 48) or intron 1 and exon 2 (immature, red arrows shown in the scheme of G, SEQ ID NOs: 49 and 50). […] DMSO (vehicle control), SPI-21 or SPI-18 treated cells were induced by TNFα for the indicated times and the levels of IκBα and β-Tubulin proteins were analyzed by western blot as indicated. […] The occupancy of the A20 gene was analyzed by qPCR using primers from the first (A, SEQ ID NOs: 55 and 56), third (B, SEQ ID NOs: 57 and 58) and last (C, SEQ ID NOs: 59 and 60) exon-intron junctions. […]

T1 sequence (P06730 whole entry): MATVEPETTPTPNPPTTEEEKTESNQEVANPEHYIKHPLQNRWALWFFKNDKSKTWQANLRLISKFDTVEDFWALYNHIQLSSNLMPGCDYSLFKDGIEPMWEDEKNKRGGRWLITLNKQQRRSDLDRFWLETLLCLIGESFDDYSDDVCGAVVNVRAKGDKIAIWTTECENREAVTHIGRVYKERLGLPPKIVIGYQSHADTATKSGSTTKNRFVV

Compound | effect on intrinsic fluorescence of eIF4E [1] | IC50 [2] [µM]
COc1ccc(C=CC(=O)c2cc(O)ccc2O)cc1 [SPI-21] | no significant effect | 
Nc1ccccc1SC(CC(=O)c1cccs1)c1cccs1 (centres unmarked) [SPI-18] |  | 39
